Measured values: BigSolDB 2.1

CC(=O)N[C@@H](C=O)[C@@H](O)[C@H](O)[C@H](O)CO
solubility (mole fraction)
Conditions | 283.15 K | 288.15 K | 293.15 K | 298.15 K | 303.15 K | 308.15 K | 313.15 K
in acetone | 4.1e-05 | 7.2e-05 | 8.7e-05 | 0.000115 | 0.000161 | 0.000193 | 0.000241
in ethanol | 0.000166 | 0.000223 | 0.000242 | 0.000268 | 0.000313 | 0.000342 | 0.000382
in methanol | 0.000634 | 0.0007 | 0.000808 | 0.000907 | 0.00109 | 0.00136 | 0.00157
in n-propanol | 7.3e-05 | 8.5e-05 | 0.000115 | 0.000166 | 0.000241 | 0.000324 | 0.000392
in water | 0.0219 | 0.0236 | 0.0257 | 0.028 | 0.0302 | 0.0324 | 0.0344
